One may read the melting point as the temperature of the solid-liquid transition. In general, IC50 refers to the concentration that inhibits the measured activity by half.

For series [1], the system named is L-929 cells (mouse fibroblast cell line). The experiment in a line: MTT cytotoxicity assay, L-929. The note with it: L929, 72 h of cell treatment, L-929 control (non-cancer) cells. It counts as cell-based. The text has this:
(§1) We used the MTT assay to evaluate compounds 5c, 5d, 5f, 5g, 6b, and 6d for their potential activity on cytotoxicity, proliferation and growth of HT-29 (human colon adenocarcinoma cell line), PC-3 (human prostate cancer cell line) and L-929 cells (mouse fibroblast cell line).
(§2) 2.1 Materials and methods:
(§3) Trypsin-EDTA and all media (RPMI 1640, DMEM/F-12K and IMDM) were purchased from Biowest (CytoGen, Poland). Buffered saline (PBS), penicillin-streptomycin solution stabilized, fetal bovine serum (FBS), amino acids solution (MEM), β-mercaptoethanol, dimethyl sulfoxide (DMSO) and MTT 3-(4,5-dimethylthiazol-2-yl)- […] bromide were supplied by Sigma Aldrich Chemical Co (USA).
(§4) All tested cell lines were provided by American Type Culture Collection (ATCC, […]
(§5) Rockville, Manassas,VA, USA). […]
In addition, the mouse fibroblast cell line
(L-929; ATCC® CCL-1™) was used as a model for non-cancer cells. […]
The L-929 was cultivated in IMDM Medium with 4 mM L-glutamine, 4500 mg/L glucose, and 1500 mg/L sodium bicarbonate supplemented with 10% (v/v) fetal bovine serum (FBS), 1% (v/v) penicillin/streptomycin and 1% (v/v) β-mercaptoethanol.
(§6) Cells were maintained in a humidified incubator at 37 °C in a 5% CO2 atmosphere and were regularly screened for mycoplasma contamination. Exponential growth of the cells was controlled by their routine passaging at 90% confluence three times a week using 0.025% trypsin/EDTA.
(§7) 2.3 Cytotoxicity analysis – MTT assay:
(§8) The viability of the cells is associated with their mitochondrial integrity and capacity.
(§9) For that reason, in the MTT microplate assay with 3-(4,5-dimethylthiazol-2-yl)-[…] bromide, first described by Mosmann [ 5], only viable cells with intact metabolism have the ability to incorporate the yellow, water-soluble tetrazolium […]
(§10) dehydrogenase to the violet-blue formazan compound. After dissolving the formazan crystals in an organic solvent, e.g., dimethyl sulfoxide (DMSO), the absorbance of the formazan solution can be measured spectrophotometrically at 570 nm.
(§11) In our research, the MTT assay was used to describe the effect of the tested compounds on cytotoxicity, proliferation and growth of HT-29, PC-3 and L-929 cells.
(§12) Before treatments with the tested compounds the suspension of 8×10^3 cells in 100 µ L medium was transferred to each well of a standard 96-well microplate. Subsequently, the plates were incubated for 24 h (5% CO 2; 37 °C) to ensure cell growth.
(§13) Afterwards, the examined substances at 10 different concentrations were added in 2– […]
(§14) volume of 100 µL medium per well. These concentrations were obtained diluting the compounds first in DMSO and then in medium, which were subsequently used to treat cells cultures in a final DMSO concentration between 0.1 and 1% per well [6] (Da Violante et. al. 2002). As control, the first and last columns were filled only with medium […]
(§15) without studied compounds. Furthermore, blanks (wells without cells) were also […]
(§16) The plates were then incubated for 72 h (37 °C; 5% CO2). Subsequently, 25 µL of fresh MTT solution (5 mg/mL in PBS) was added to each well and the microplates were incubated in a humidified atmosphere for additional 3 h (37 °C; 5% CO2). After the incubation, the MTT solution was replaced by 100 µL of DMSO in order to dissolve formazan complexes and absorbance was immediately measured (microplate reader PowerWaveXS BioTek Instruments, Inc., USA) at 570 nm.
The IC50 value (concentration of an inhibitor which reduces the absorbance level in the treated cells in comparison to untreated cells by half) representing the cytotoxicity of a substance was evaluated for each studied compound using the GraphPad Prism 7.0 software system (GraphPad Prism Software Inc., USA). To determinate statistical significance between the results one-way variance analysis (ANOVA) was used. The samples homogeneity was tested using Bartlett’s test, followed by Dunnett’s test. All data are presented as the mean of the replicates from three independent experiments, […]
(Tetrazolium assays rely on reduction of a dye to a coloured formazan, in cell work by metabolically active cells.)

The subject of series [2] is HT-29 (human colon adenocarcinoma cell line). The experiment in a line: MTT cytotoxicity assay, HT-29. Type of series: cell-based. The note with it: 72 h of cell treatment, HT-29 cells.
Text: as §1, §2, §3, §4, §5
The HT-29 cells were cultured in RPMI-1640 medium containing 2 mM L-glutamine, 10 mM HEPES, 1 mM sodium pyruvate, 4500 mg/L glucose and 1500 mg/L sodium bicarbonate, supplemented with 10% (v/v) fetal bovine serum (FBS), 1% (v/v) penicillin/streptomycin and 1% (v/v) MEM amino acid’s solution. […]
as §6, §7, §8, §9, §10, §11, §12, §13, §14, §15, §16
(§17) The IC50 value (concentration of an inhibitor which reduces the absorbance level in the treated cells in comparison to untreated cells by half) representing the cytotoxicity of a substance was evaluated for each studied compound using the GraphPad Prism 7.0 software system (GraphPad Prism Software Inc., USA). To determinate statistical significance between the results one-way variance analysis (ANOVA) was used. The samples homogeneity was tested using Bartlett’s test, followed by Dunnett’s test. All data are presented as the mean of the replicates from three independent experiments, with a significance level of p ≤ 0.05.

Series [3] concerns PC-3 (human prostate cancer cell line). The experiment in a line: MTT cytotoxicity assay, PC-3. It counts as cell-based. Conditions: 72 h of cell treatment, PC-3 cells.
Text: as §1, §2, §3, §4, §5, §6, §7, §8, §9, §10, §11, §12, §13, §14, §15, §16, §17

`CCN(CC)CCCC(C)Nc1nn(CCN(C)C)c(=O)c2ccccc12` (centres unmarked) [6e] registered a melting point of 58 to 60 °C.

In the case of `CCN(CC)CCCC(C)Nc1nn(C)c(=O)c2ccccc12` (centres unmarked) [6b], the melting point lay within 84 to 86 °C. For the same compound, half-maximal inhibition in series [1] (IC50) was put at 92.9 µM. Further, in series [2], the IC50 amounted to 51.6 µM. The compound further displayed an IC50 in series [3] of 66.3 µM.

Compound `Cn1nc(N2CCCCC2)c2ccccc2c1=O` [5c] registered a melting point of 92 to 93 °C. Besides, the IC50 in series [1] was found to be 27.4 µM. Besides, the IC50 in series [2] stood at 36.7 µM. The IC50 in series [3] was 46 µM.

The compound `Cn1nc(N2CCOCC2)c2ccccc2c1=O` [5a] yielded a melting point of 135 to 136 °C.

In turn, `Cn1nc(N(c2ccccc2)c2ccccn2)c2ccccc2c1=O` [5i] yielded a melting point of 160 to 163 °C.

The compound `CC(C)n1nc(NCCc2cccs2)c2ccccc2c1=O` [5f] registered a melting point of 121 to 123 °C. The compound further displayed an IC50 in series [1] of 20.1 µM. For the same compound, the half-maximal inhibitory concentration (IC50) in series [2] was 27.4 µM. Also, in series [3], the IC50 was determined as 27.3 µM.

`Cn1nc(NCc2ccc(C(F)(F)F)cc2)c2ccccc2c1=O` [5g] gave a melting point of 216 to 218 °C. The same compound gave an IC50 in series [1] of 21.3 µM. The same compound had an IC50 in series [2] of 31.4 µM. Also, the IC50 in series [3] amounted to 22.4 µM.

For the compound `Cn1nc(NC2CCCCC2)c2ccccc2c1=O` [5d], the half-maximal inhibitory concentration (IC50) in series [1] was found to be 20.4 µM; in series [2] it was 29.8 µM; in series [3] it was 20.1 µM.

The compound `CNCCNc1nn(C)c(=O)c2ccccc12` [6d] yielded a melting point of 153 to 155 °C. Moreover, the IC50 in series [1] was 52.7 µM. In addition, the IC50 in series [2] was 75.6 µM. Further, the IC50 in series [3] is 83 µM.

The compound `CCCCCCNc1nn(C(C)C)c(=O)c2ccccc12` [5e] came in with a melting point of 86 to 87 °C.

`COc1ccc(CNc2nn(C(C)C)c(=O)c3ccccc23)cc1` [5h] returned a melting point of 108 to 110 °C.

For `Cn1nc(N2CCSCC2)c2ccccc2c1=O` [5b], the melting point was in the range of 132 to 134 °C.

(Values after PMC7934800, “Amino- and polyaminophthalazin-1(2H)-ones: synthesis, coordination properties, and biological activity” (Beilstein Journal of Organic Chemistry, 2021).)
